Counter-ions that a name gives are not always drawn.
Molecular target: adenosine A2a receptor (Homo sapiens, UniProt P29274)
Test: adenosine A2a receptor agonist method of Murphree et al (Ki)
Type: binding
Conditions: method described by L. J. Murphree et al, Molecular Pharmacology 61, 455-462 (2002)
Procedure: Compounds of formula I and their pharmaceutically acceptable salts are useful as pharmaceuticals. In particular, they activate the adenosine A2a receptor activation, i.e. they act as A2a receptor agonists.
Compounds of the Examples hereinbelow have K; values below 1.0 μM in the above method. For example, the compounds of Examples 6, 10 and 15 have Ki values of 0.004, 0.005, and 0.009 μM respectively.

Sequence of adenosine A2a receptor (P29274 whole entry): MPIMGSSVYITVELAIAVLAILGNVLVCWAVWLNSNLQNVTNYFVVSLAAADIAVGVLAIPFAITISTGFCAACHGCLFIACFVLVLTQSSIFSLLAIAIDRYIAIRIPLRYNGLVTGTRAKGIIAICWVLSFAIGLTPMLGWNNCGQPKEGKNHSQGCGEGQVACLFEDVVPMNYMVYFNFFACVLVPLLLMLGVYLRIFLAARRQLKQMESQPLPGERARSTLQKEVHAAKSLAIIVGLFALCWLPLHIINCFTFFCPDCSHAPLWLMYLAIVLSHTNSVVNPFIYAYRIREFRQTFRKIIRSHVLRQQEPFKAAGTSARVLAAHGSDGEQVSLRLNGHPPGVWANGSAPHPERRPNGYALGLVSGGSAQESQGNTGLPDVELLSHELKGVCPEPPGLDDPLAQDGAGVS

Ki [nM]	SMILES
4	O=C(N[C@H]1C[C@@H](n2cnc3c(NCC(c4ccccc4)c4ccccc4)nc(N[C@H]4CCNC4)nc32)[C@H](O)[C@@H]1O)C1CCC1 [Example 6, Cyclobutanecarboxylic acid {(1S,2R,3S,4R)-4-[6-(2,2-diphenyl-ethylamino)-2-((S)-pyrrolidin-3-ylamino)-purin-9-yl]-2,3-dihydroxy-cyclopentyl}-amide hydrochloride]
5	O=C(Nc1cccnc1)NC1CCN(c2nc(NCC(c3ccccc3)c3ccccc3)c3ncn(C4CC(NC(=O)C5CCC5)C(O)C4O)c3n2)C1 [Example 10, Cyclobutanecarboxylic acid ((1S,2R,3S,4R)-4-{6-(2,2-diphenyl-ethylamino)-2-[(R)-3-(3-pyridin-3-yl-ureido)-pyrrolidin-1-yl]-purin-9-y}-2,3-dihydroxy-cyclopentyl)-amide]
9	O=C(N[C@H]1C[C@@H](n2cnc3c(NCC(c4ccccc4)c4ccccc4)nc(N[C@@H]4CCN(C(=O)NC5CCN(c6ccccn6)CC5)C4)nc32)[C@H](O)[C@@H]1O)C1CCC1 [Example 15, (R)-3-[9-[(1R,2S,3R,4S)-4-(cyclobutanecarbonyl-amino)-2,3-dihydroxy-cyclopentyl]-6-(2,2-diphenyl-ethylamino)-9H-purin-2-ylamino]-pyrrolidine-1-carboxylic acid (3,4,5,6-tetrahydro-2H-[1,2′]bipyridinyl-4-yl)-amide trifluoroacetate]

Reference: US20090281127A1, “Organic Compounds” (priority 2006, published 2009)
